{"source": "patent US5082828A", "about": "“Eclosion hormone peptides” (Sandoz Ltd., priority 1991, dated 1992)", "key": {"[1]": {"tested_on": "pharate adult H. virescens", "parameters": "species or system Heliothis virescens", "conditions": "in vivo", "description": "The biological activity of EH in fractions from each purification step is detected using a pharate adult H. virescens in vivo assay, similar to that described by Fugo (1983) Appl. Ent. Zoo. 18:540-44 and Truman (1973) Biol. Bull. 14:44:200-211, both of which are incorporated by reference. Insects are injected in the dorsal thorax with 5 μl aliquots dissolved in physiological saline, approximately 7 hr before normal eclosion, which occurs just after the onset of darkness. Moths eclosing within 3 hr of injection are scored as receiving EH, a positive response."}, "[2]": {"tested_on": "late second stadium M. sexta", "type": "in vivo, Manduca sexta", "description": "The biological activity of isolated EH is assayed as follows. Late second stadium M. sexta are selected for assay when third stadium mandibles are visible through the fluid-filled second stadium head capsule. Development of these larvae, held at 31° C., is checked at 15 min intervals until an air bubble first appears in the head capsule. \"Air bubble\" larvae are immediately injected in the dorsal abdomen with 1 μl of the test fractions, and time to molt of treated and controls is compared at room temperature ~21° C.). Mean time to molt for EH-affected larvae is 50 min; that for controls is 109 min. Purified EH is active at 0.1 ng per pharate adult H. virescens, and at 0.01 ng per second stadium M. sexta."}, "larval molt": {"tested_on": "larval molt", "conditions": "EH present in the hemolymph during a sensitive period when it is normally absent; cited from earlier work"}}, "data": [{"substance": "Eclosion hormone [EH]", "values": [{"measurement": "dose evoking positive EH-like response (active dose)", "setting": "[1]", "result": 0.1, "unit": "ng per pharate adult"}, {"measurement": "mean time to molt", "setting": "[2]; EH-affected larvae at room temperature ~21° C., controls 109 min", "result": 50, "unit": "min"}, {"measurement": "dose evoking positive EH-like response (active dose)", "setting": "[2]; in vivo", "result": "0.01 ng per second stadium M. sexta"}, {"measurement": "effect on larval molt", "setting": "larval molt", "result": "block the larval molt completely"}]}]}
